Key:
microorganisms = conditions: as low as 1 or 2 ppm peracetic acid; cited from earlier work
[1] = aqueous solution; cited from earlier work
[2] = Stability/decomposition of peracetic acid formed in buffered aqueous medium (Example 1, FIG. 4); format: physicochemical; conditions: 25° C.
Description: The mole ratio of hydrogen peroxide to acetic anhydride used in this Example 1 was 5.7 moles H2O2 per mole of acetic anhydride, a mole ratio that provided a large stoichiometric excess of hydrogen peroxide. Three pH values were used: 10.0, 6.8 and 4.5. The aqueous medium in each study was appropriately buffered to maintain the specific pH value throughout the duration of the run.
In each of the three runs, the operating procedure was as follows. A dilute aqueous buffered hydrogen peroxide solution, containing 585 ppm H2O2, was prepared and maintained at a temperature of 25° C. No hydrogen peroxide stabilizers were added to the solution. Acetic anhydride, undiluted (i.e., 100%) and in an amount sufficient to provide the desired 5.7:1 mole ratio of H2O2:acetic anhydride, was added to the buffered hydrogen peroxide solution. Measurements of peracetic acid and hydrogen peroxide concentrations were obtained from samples taken periodically over a period of 180 minutes. Results of these three studies, as peracetic acid concentration vs. time, are plotted in the graph shown as FIG. 4.

[3] = cited from earlier work

Compound	activity at very low concentrations (microorganisms)	acid dissociation constant (pKa) [1]	peracetic stability ([2]; pH 6.8, buffered aqueous medium, 5.7:1 H2O2:acetic anhydride, followed over 180 minutes)	decomposition of the peracetic acid formed ([2]; pH 10.0, buffered aqueous medium, after peracetic acid formation was complete)	solubility in water [3]
Peracetic acid	very active	8.2	relatively good	high	–
CC(=O)OC(C)=O [Acetic anhydride]	–	–	–	–	less than 3 wt %
